# Measurements as given in paper PMC11444201, “A Novel Tetrahydroacridine Derivative with Potent Acetylcholinesterase Inhibitory Properties and Dissociative Capability against Aβ42 Fibrils Confirmed by In Vitro Studies” (International Journal of Molecular Sciences, 2024).
# Where a name gives a salt, the structure may show the parent alone.
# What was measured:
# [1] = target: acetylcholinesterase (AChE) (Electrophorus electricus, UniProt O42275); assay: modified Ellman spectrophotometric assay with isolated enzyme; assay type: biochemical
# [2] = target: T1, amyloid β 1-42 (Aβ42) fibrils (Homo sapiens, UniProt P05067); assay: thioflavin T fluorescence fibril dissociation assay (DC50), supported by AFM; assay type: biochemical
# T1 construct: gene APP; amyloid β 1-42 peptide, preformed fibrils
# T1 sequence (P05067 672-713): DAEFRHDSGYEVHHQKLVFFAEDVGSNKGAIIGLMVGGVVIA
# acetylcholinesterase (AChE), sequence (O42275 24-633): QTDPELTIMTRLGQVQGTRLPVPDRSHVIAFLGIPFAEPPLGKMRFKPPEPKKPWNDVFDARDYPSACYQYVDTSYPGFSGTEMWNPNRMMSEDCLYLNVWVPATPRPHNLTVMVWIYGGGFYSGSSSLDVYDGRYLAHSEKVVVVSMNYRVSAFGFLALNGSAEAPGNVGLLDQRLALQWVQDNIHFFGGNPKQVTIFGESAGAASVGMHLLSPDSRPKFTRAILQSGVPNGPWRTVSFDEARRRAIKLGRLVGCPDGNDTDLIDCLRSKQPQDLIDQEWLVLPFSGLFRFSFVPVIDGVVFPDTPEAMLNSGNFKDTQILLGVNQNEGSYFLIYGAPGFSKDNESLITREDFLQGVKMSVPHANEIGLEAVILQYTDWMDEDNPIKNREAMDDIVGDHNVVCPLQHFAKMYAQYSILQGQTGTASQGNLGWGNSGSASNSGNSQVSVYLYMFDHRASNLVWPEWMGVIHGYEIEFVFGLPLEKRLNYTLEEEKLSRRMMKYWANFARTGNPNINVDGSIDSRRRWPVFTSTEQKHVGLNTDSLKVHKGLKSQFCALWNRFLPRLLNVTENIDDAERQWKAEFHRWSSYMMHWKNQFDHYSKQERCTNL
smiles,measurement,setting,value
"Clc1cc2c3c(c4c(nc3c1)CCCC4)NCCN2 [CHDA, 6-chloro-1,2,3,4,9,10,11,12-octahydro-[1,4]-diazepine-[5,6,7-kl]-acridine Monohydrochloride]",IC50,[1],18.5 ± 5.68 nM
same,DC50,[2],70.8 µM
